Test results reported in US20230338463A1, “ICD PEPTIDE AND USE THEREOF FOR HAVING CYTOTOXIC ACTIVITY ON CANCER CELLS” (NATIONAL TSING HUA UNIVERSITY, priority 2022, published 2023).
Non-standard residues stand in square brackets, D forms with d. Residues, ends and D or L forms follow the SMILES beside them. 2Nal = N[C@@H](Cc1ccc2ccccc2c1)C(=O)O

Tests used:
[1] = system: CGNHC9 cells (oral squamous cell carcinoma); conditions: human, 24 h
Text: (§1) Three non-small cell lung cancer cell lines (H1975, A549, PC9) and two oral cancer cell lines (CGNHC9, OECM-1) were used in the present invention. H1975 is the non-small cell lung carcinoma tissue, A549 is the adenocarcinomic alveolar basal epithelial cells and PC9 is the non-small cell lung cancer with EGFR mutation. CGNHC9 and OECM-1 cell lines refer to oral squamous cell carcinoma and gingival epidermoid carcinoma respectively. The abovemetioned cell lines were derived from human origin and being cultured in the humidified incubator containing 5% CO2 at 37° C. CGNHC9 cell line was cultured in Dulbecco’s modified Eagle’s medium (GIBCO Life Technologies Corporation, NY, USA) with 10% fetal bovine serum (FBS), 2 mM L-glutamine and 1% penicillin/ streptomycin and Roswell Park Memorial Institute 1640 (RPMI 1640, GIBCO Life Technologies Corporation, NY, USA) medium with 10% fetal bovine serum (FBS), 2 mM L-glutamine and 1% penicillin/ streptomycin was used as the culture medium for the rest of the cell lines.
(§2) The anticancer activity of ICD peptides include, not limited, SEQ ID NO: 1 and its derivative peptides (SEQ ID NO: 2, SEQ ID NO: 3, SEQ ID NO: 4, and SEQ ID NO: 5) was using the 3-(4,5-Dimethyl-2-thiazolyl)-2,5-diphenyl-2H-tetrazolium bromide (MTT, Sigma Aldrich, St. Louis, MO, USA) colorimetric assay for cell viability test. The cells include, not limited, H1975, A549, PC9, CGNHC9, OECM-1, MN-11 and HFW cells/cell lines.
(§3) The cells were seeded in the 96-well plate at 5000 cells/well under the environment of humidified 5% CO2 and the temperature of 37° C. for 24 hours. The medium was removed from the well before the fresh medium containing different concentrations of ICD peptides was added and incubated for 24 hours. Medium with PBS solution was used as control group. All ICD peptides were diluted serially from 100 µM to 0.78 µM in ddH2O before adding in the medium. After 24 hours of ICD peptide treatment, fresh medium with 10% MTT solution (5 mg/mL) was incubated for additional 4 hours in advance of dissolving the formazan crystal in 100 µL DMSO (Dimethyl sulfoxide, Sigma Aldrich) solution. The calculation of cell survival rate was completed by measuring the absorbance at 570 nm using microplate reader (TECAN Sunrise ELISA Reader).
(§4) The cell survival was calculated from the treated cells relative to the control (100% viable cells) using the mean of three independent experiments and expressed as a 50% inhibitory concentration (IC50).
(§5) The percentage of cell viability was calculated using the following formula: […]
(§6) The half inhibition concentration (IC50) is the concentration required by the drug to reach fifty percent inhibition. In one embodiment, the SEQ ID NO: 1 and its derivative peptides (SEQ ID NO:2, SEQ ID NO:3, SEQ ID NO:4, SEQ ID NO: 5) was used for IC50 test via MTT colorimetric assay.

[2] = system: OECM-1 cells (gingival epidermoid carcinoma); conditions: human, 24 h
Text: as §1, §2, §3, §4, §5, §6

[3] = system: PC9 cells (non-small cell lung cancer with EGFR mutation); conditions: human, 24 h
Text: as §1, §2, §3, §4, §5, §6

[4] = system: PC 9 cells; test: Luciferin-luciferase extracellular ATP, PC 9; assay type: cell-based, human; conditions: PC 9, 2 × IC50, peak at 0.5 hour
Experimental: The ATP release from cancer cells were measured using the luciferin-luciferase assay as ATP release had been the iconic feature for immunogenic cell death (ICD).
PC 9 cells were seeded in the 96 well plate at the density of 10,000 cells/ well and allowed to adhere for 48 hours in the condition described previously for MTT assay. […] All of the three ICD peptides were dissolved in the serum-free RPMI 1640 medium for the cells’ treatment. Cells were treated with serum-free RPMI 1640 medium containing PBS as the control group. After being treated for 0.5, 1, 1.5, and 2 hours, the supernatant of cells was collected separately and stored at -20° C. before the ATP assay. The aliquot of reconstituted rL/L reagent in the ENLITEN ATP assay kit (Promega, Madison, WI, USA) was incubated at room temperature for one hour before using. The collected supernatant of the cells was centrifuged at the speed of 500 xg for 10 minutes and took out 100 µL of the supernatant into the black 96 well plate with clear bottom to avoid cross-talk between wells. […] Measurement of the extracellular ATP chemiluminescence was completed using the Wallac VICTOR 3 Multilabel plate reader (PerkinElmer, Shelton, CT, USA)

[5] = system: MN-11 cells; test: Luciferin-luciferase extracellular ATP, MN-11; assay type: cell-based, murine; conditions: MN-11, 2 × IC50, peak at 0.5-hour
Experimental: On the other hand, MN-11 cells were seeded at the density of 25,000 cells/ well in the 96 well plate and allowed to adhere for 24 hours. Cells were treated with Nal-P-113, Bip-P-113 and Dip-P-113 at 2× IC50 for 0.5, 1, 1.5, and 2 hours. Untreated cells served as the control group. After being treated for different time points (0.5, 1, 1.5, and 2 hours), the supernatant of cells was analyzed using the ENLITEN ATP luciferase assay kit (Promega, Madison, WI, USA). The level of the extracellular ATP chemiluminescence was measured at 560 nm using the Wallac VICTOR 3 Multilabel plate reader (PerkinElmer, Shelton, CT, USA).
ATP release from MN-11 cells were measured using the luciferin-luciferase assay after peptide (2 × IC50) treatment (FIGS. 6B-6D). Nal-P-113 and Dip-P-113 reached the relative light unit (~ 11,000 RLU) peak at 0.5-hour, and Bip-P-113 reached the highest peak at 1 hour (~ 13,000 RLU).

CC(=O)N[C@@H](C)C(=O)N[C@@H](CCCCN)C(=O)N[C@@H](CCCNC(=N)N)C(=O)N[C@@H](Cc1ccc2ccccc2c1)C(=O)N[C@@H](Cc1ccc2ccccc2c1)C(=O)NCC(=O)N[C@@H](Cc1ccc(O)cc1)C(=O)N[C@@H](CCCCN)C(=O)N[C@@H](CCCNC(=N)N)C(=O)N[C@@H](CCCCN)C(=O)N[C@@H](Cc1ccccc1)C(=O)N[C@@H](Cc1ccc2ccccc2c1)C(N)=O [SEQ ID NO:3, Ac-AKR Nal Nal GYKRKFNal-NH2] (Ac-AKR[2Nal][2Nal]GYKRKF[2Nal]-NH2)
cell viability percentage [1]: lower than 20% | cell viability percentage [2]: lower than 20% | cell viability percentage [3]: lower than 20% | ATP release, highest value (relative light unit) [4]: around 10,000 RLU | ATP release, relative light unit peak [5]: ~ 11,000 RLU
